Results: patent US9585933B2, “Therapeutic use of peptide inhibitors of NADPH oxidase; aerosolization as a delivery mechanism” (University of Pittsburgh—Of the Commonwealth System of …, priority 2011, dated 2017)
Where no end group is shown, it is not given here.

Target: T1, Nox1 oxidase (COS-Nox1 lysate: hNox1, p22phox, NOXO1, NOXA1) (Homo sapiens, UniProt Q9Y5S8)
T1 construct: expressed in transfected cells; host or cells: COS-22 cells (COS 7 with p22phox), transiently cotransfected; cell lysate used
T1 sequence (Q9Y5S8 1-564): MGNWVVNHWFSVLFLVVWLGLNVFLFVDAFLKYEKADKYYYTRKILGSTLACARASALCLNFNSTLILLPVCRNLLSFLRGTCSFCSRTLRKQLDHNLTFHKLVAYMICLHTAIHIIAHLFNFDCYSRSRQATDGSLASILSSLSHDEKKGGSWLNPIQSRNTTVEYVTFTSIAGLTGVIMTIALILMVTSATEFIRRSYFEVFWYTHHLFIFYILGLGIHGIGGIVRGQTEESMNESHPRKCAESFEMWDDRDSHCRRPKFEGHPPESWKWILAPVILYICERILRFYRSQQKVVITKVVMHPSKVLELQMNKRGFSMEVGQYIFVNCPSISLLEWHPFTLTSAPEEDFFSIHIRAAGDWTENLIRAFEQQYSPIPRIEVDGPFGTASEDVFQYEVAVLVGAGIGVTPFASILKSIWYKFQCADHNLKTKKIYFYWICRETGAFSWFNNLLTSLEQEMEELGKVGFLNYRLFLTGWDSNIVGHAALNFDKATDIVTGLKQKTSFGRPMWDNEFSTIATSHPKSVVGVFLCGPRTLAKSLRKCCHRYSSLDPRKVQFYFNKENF
T1 sequence (P13498 2-195 partner limits assumed): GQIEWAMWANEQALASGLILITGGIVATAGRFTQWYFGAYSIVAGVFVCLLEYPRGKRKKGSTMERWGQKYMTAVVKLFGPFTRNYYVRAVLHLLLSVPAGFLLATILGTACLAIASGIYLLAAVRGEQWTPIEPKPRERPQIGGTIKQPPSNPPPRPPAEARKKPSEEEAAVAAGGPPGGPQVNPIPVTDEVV
Assay: Cell-free SOD-inhibitable cytochrome c reduction assay, O2- production in COS-Nox1 lysates
Format: biochemical
Experimental: To test this hypothesis, the inhibitory activity of Nox2ds was assessed in cell-free assays using reconstituted systems expressing either Nox1, 2 or 4 oxidase. Nox 2 oxidase was recapitulated by stably transfecting COS 7 cells with Nox2, p22phox, p47phox, and p67phox (aka COS-Nox2). Nox1 oxidase was obtained by transfecting COS 7 cells with Nox1, p22phox, NOXO1 and NOXA1 (COS-Nox1), and Nox 4 oxidase was regenerated by transfection of COS 7 cells with Nox4 and p22phox. […] Our new data support selectivity of Nox2ds peptide in differentiating the contribution of Nox2 vs. Nox1 and Nox4 NADPH oxidase and its potential clinical use in ameliorating cardiopulmonary diseases.
Cell transfection was carried out using Lipofectamine LTX and Plus reagent (Invitrogen), according to the manufacturer's instructions. COS-22 cells were transiently cotransfected with pcDNA 3.1-hNox1, pCMVsport 6-hNOXA1, and pcDNA3.1-hNoxO1 (COS-Nox1/NOXO1/NOXA1 cells). Cells were used 24 h after transfection. […]
Superoxide (O2^−) production was measured in COS-Nox1 and COS-Nox2 lysates by determining the rate of O2^− dismutase (SOD) inhibitable cytochrome c reduction and by electron paramagnetic resonance (EPR). […]
O2^− production was initiated by the addition of NADPH and measured by the SOD-inhibitable cytochrome c reduction for 10 min.

In the case of CSTRVRRQL-NH2 [Nox2ds, CSTRVRRQL], the “inhibition of Nox1-derived O2- production (in words)” value is reported as “did not inhibit” and the “rate of Nox1-derived O2- production, cytochrome c reduction” value (10 μM peptide, 0 μM control 0.97±0.14) is reported as 0.765±0.19 nmol O2^−/min/10^7 cell equivalents.
